Experimental findings from patent USRE49698E1, “Substituted dihydroquinazolines” (AiCuris Anti-infective Cures GmbH, priority 2003, dated 2023) are described below.

In series [1] the test system is HCMV. The series can be described thus: Anti-HCMV (anti-human cytomegalovirus) cytopathogenicity test. It counts as cell-based. The method, then:
(§1) Anti-HCMV (Anti-Human Cytomegalovirus) Cytopathogenicity Tests
(§2) The test compounds are employed as 50 millimolar (mM) solutions in dimethyl sulphoxide (DMSO). Ganciclovir®, Foscarnet® and Cidofovir® are used as reference compounds. After addition of in each case 2 μl of the 50, 5, 0.5 and 0.05 mM DMSO stock solutions to 98 μl portions of cell culture medium in row 2 A-H for duplicate determinations, 1:2 dilutions are carried out with 50 μl portions of medium up to row 11 of the 96-well plate. The wells in rows 1 and 12 each contain 50 μl of medium. In 150 μl of a suspension of 1×10^4 cells (human prepuce fibroblasts [NHDF]) are pipetted into each of the wells (row 1=cell control) and, in rows 2-12, a mixture of HCMV-infected and uninfected NHDF cells (M.O.I.=0.001-0.002), i.e. 1-2 infected cells per 1000 uninfected cells. Row 12 (without substance) serves as virus control. The final test concentrations are 250-0.0005 μM. The plates are incubated at 37° C./5% CO2 for 6 days, i.e. until all the cells are infected in the virus controls (100% cytopathogenic effect [CPE]). The wells are then fixed and stained by adding a mixture of formalin and Giemsa's dye (30 minutes), washed with double-distilled water and dried in a drying oven at 50° C. The plates are then assessed visually using an overhead microscope (Plaque Multiplier from Technomara).
The following data can be acquired from the test plates:
SI (selectivity index)=CC50 (NHDF)/EC50 (HCMV).

Series [2] is described as follows: Cytostatic effect on NHDF cells in the anti-HCMV cytopathogenicity test plates. It counts as cell-based. The note with it: human, human prepuce fibroblasts (NHDF cells), 6 days incubation, visual assessment, concentration at which no visible cytostatic effects are evident vs untreated cell control. The method, then:
as §1, §2
The following data can be acquired from the test plates: […]
In general terms: Damage to the host cells serves as the signal in cytopathic effect assays.

The mark [3] stands for this setting: Human betaherpesvirus 5, NHDF, 144 h; read-out: HCMV EC50.
Setting [4] is: Human betaherpesvirus 5, NHDF, 144 h, read-out: HCMV EC50.

Structures can show the parent of a compound that is named as a salt. Where two headings read alike, the source gives them in different places.

Regarding `O=C(O)CC1c2cccc(F)c2N=C(N2CCN(c3ccc(F)cc3)CC2)N1c1cccc(C(F)(F)F)c1` (single isomer, unassigned) [Example 2, {8-Fluoro-2-[4-(4-fluorophenyl)-1-piperazinyl]-3-[3-(trifluoromethyl)phenyl]-3,4-dihydro-4-quinazolinyl}acetic acid], the “SI HCMV (selectivity index)” value in series [1] (CC50 (NHDF)/EC50 (HCMV)) was determined as 750. Besides, the concentration giving a half-maximal response (EC50) (in general, the concentration that produces a half-maximal response) in series [1] (setting [3]) worked out at 16 nM. Moreover, it took 12000 nM to reach half-maximal cytotoxicity in series [2] (CC50 at 6 days).

On to `Cc1cccc(N2CCN(C3=Nc4c(F)cccc4C(CC(=O)O)N3c3cccc(C(F)(F)F)c3)CC2)c1` (single isomer, unassigned) [Example 9, {8-Fluoro-2-[4-(3-methylphenyl)-1-piperazinyl]-3-[3-(trifluoromethyl)phenyl]-3,4-dihydro-4-quinazolinyl}acetic acid hydrochloride], for which the “SI HCMV (selectivity index)” value in series [1] (CC50 (NHDF)/EC50 (HCMV)) is 750. Further, the EC50 in series [1] (setting [4]) turned out to be 20 nM. Half-maximal cytotoxicity in series [2] (CC50 at 6 days) was put at 15000 nM.

As to `COc1cccc(N2CCN(C3=Nc4c(F)cccc4C(CC(=O)O)N3c3cc(C(F)(F)F)ccc3OC)CC2)c1` (single isomer, unassigned) [Example 15, {8-Fluoro-2-[4-(3-methoxyphenyl)-1-piperazinyl]-3-[2-methoxy-5-(trifluoromethyl)phenyl]-3,4-dihydro-4-quinazolinyl}acetic acid], the EC50 in series [1] (setting [3]) is 2 nM.

As for `COc1ccc(C(F)(F)F)cc1N1C(N2CCN(c3ccc(F)cc3)CC2)=Nc2c(F)cccc2C1CC(=O)O` (single isomer, unassigned) [Example 19, {8-Fluoro-2-[4-(4-fluorophenyl)-1-piperazinyl]-3-[2-methoxy-5-(trifluoromethyl)phenyl]-3,4-dihydro-4-quinazolinyl}acetic acid], in series [1] (CC50 (NHDF)/EC50 (HCMV)), the “SI HCMV (selectivity index)” value is recorded as 8947. In series [1] (setting [3]), the EC50 was 2 nM. In series [2], it took 17000 nM to reach half-maximal cytotoxicity (CC50 at 6 days).

For `COc1ccc(Cl)cc1N1C(N2CCN(c3ccc(F)cc3)CC2)=Nc2c(F)cccc2C1CC(=O)O` (single isomer, unassigned) [Example 23, {8-Fluoro-2-[4-(4-fluorophenyl)-1-piperazinyl]-3-[6-methoxy-3-chlorophenyl]-3,4-dihydro-4-quinazolinyl}acetic acid hydrochloride], the “SI HCMV (selectivity index)” value in series [1] (CC50 (NHDF)/EC50 (HCMV)) is reported as 12632. Besides, in series [1] (setting [4]), the concentration giving a half-maximal response (EC50) was 2 nM. In series [2], the CC50 (as a rule, the concentration that lowers cell viability or growth by half) at 6 days is 24000 nM.

As to `NC(=O)c1ccc2c(c1)C(CC(=O)O)N(c1cccc(C(F)(F)F)c1)C(N1CCN(c3cccc(Cl)c3)CC1)=N2` (stereo not shown) [Example 29], in series [1] (CC50 (NHDF)/EC50 (HCMV)), the “SI HCMV (selectivity index)” value was 671. The 50% effective concentration (EC50) in series [1] (setting [3]) came to 70 nM. In series [2], this molecule came in with a CC50 at 6 days of 47000 nM.
